Values of other authors, collected in patent publication US20040024003A1, “Flat medicinal preparation for transmucosal administration of oxycodon or a comparable active ingredient in the oral cavity, for use in pain therapy and in addiction therapy” (priority 1999, published 2004).

Tests used:
[1] = in vivo

## COc1ccc2c3c1O[C@H]1C(=O)CC[C@@]4(O)[C@@H](C2)N(C)CC[C@]314 [oxycodone]
[1]
  average duration of action: 4 to 6 h
Normal peroral administration
  time taken to enter the blood: 15 to 30 min
Peroral administration
  bioavailable fraction following peroral administration: two thirds
